Measurements reported in PubChem BioAssay AID248 (DTP/NCI, 2004).
Values joined by “and” are separate entries in the source; they are usually repeats but may differ in a detail not shown here. Identical values can stand only once. Toxic doses and inconclusive results are not listed.

Test system: L1210 leukemia ip in BDF1 mice, survival T/C
Experiment: NCI In Vivo Anticancer Drug Screen. Data for tumor model L1210 Leukemia (intraperitoneal) in B6D2F1 (BDF1) mice
Details: endpoint: mean survival time, higher = longer survival
Procedure, shortened: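 Transplantable tumor model; survival measured in treated vs vehicle control mice. Value = treated/control.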

## CN(C)CC(=O)c1ccc(O)c(O)c1
dose: 29.5 mg/kg/injection, schedule: Q#A X Z (ip), vehicle: saline
  T/C: 123 % of control
dose: 44.5 mg/kg/injection, schedule: Q#A X Z (ip), vehicle: saline
  T/C: 124 % of control
dose: 50.0 mg/kg/injection, schedule: Q01DX Z (ip), vehicle: saline
  T/C: 109 % of control
dose: 75.0 mg/kg/injection, schedule: Q01DX010 (ip), vehicle: saline
  T/C: 112 % of control and 114 % of control
dose: 75.0 mg/kg/injection, schedule: Q01DX Z (ip), vehicle: carboxymethylcellulose (CMC)
  T/C: 110 % of control
dose: 75.0 mg/kg/injection, schedule: Q01DX Z (ip), vehicle: clinical formulation
  T/C: 110 % of control and 113 % of control
dose: 75.0 mg/kg/injection, schedule: Q01DX Z (ip), vehicle: water
  T/C: 112 % of control
dose: 100.0 mg/kg/injection, schedule: Q01DX Z (ip), vehicle: saline
  T/C: 116 % of control
dose: 133.0 mg/kg/injection, schedule: Q01DX Z (ip), vehicle: saline
  T/C: 124 % of control
dose: 150.0 mg/kg/injection, schedule: Q01DX Z (ip), vehicle: carboxymethylcellulose (CMC)
  T/C: 112 % of control
dose: 150.0 mg/kg/injection, schedule: Q01DX Z (ip), vehicle: clinical formulation
  T/C: 116 % of control
dose: 150.0 mg/kg/injection, schedule: Q01DX Z (ip), vehicle: water
  T/C: 124 % of control
dose: 150.0 mg/kg/injection, schedule: Q#A X Z (ip), vehicle: saline
  T/C: 118 % of control
dose: 200.0 mg/kg/injection, schedule: Q01DX007 (iv), vehicle: saline
  T/C: 104 % of control
dose: 200.0 mg/kg/injection, schedule: Q01DX Z (sc), vehicle: saline
  T/C: 108 % of control
dose: 200.0 mg/kg/injection, schedule: Q## X Z (ip), vehicle: saline
  T/C: 100 % of control
dose: 266.0 mg/kg/injection, schedule: Q03DX Z (ip), vehicle: saline
  T/C: 123 % of control
dose: 300.0 mg/kg/injection, schedule: Q01DX007 (iv), vehicle: saline
  T/C: 95 % of control
dose: 300.0 mg/kg/injection, schedule: Q01DX Z (ip), vehicle: clinical formulation
  T/C: 118 % of control
dose: 300.0 mg/kg/injection, schedule: Q01DX Z (ip), vehicle: water
  T/C: 116 % of control
dose: 300.0 mg/kg/injection, schedule: Q01DX Z (sc), vehicle: saline
  T/C: 108 % of control
dose: 300.0 mg/kg/injection, schedule: Q## X Z (ip), vehicle: saline
  T/C: 100 % of control
dose: 400.0 mg/kg/injection, schedule: Q03DX Z (ip), vehicle: saline
  T/C: 117 % of control
dose: 450.0 mg/kg/injection, schedule: Q01DX Z (ip), vehicle: saline
  T/C: 153 % of control
dose: 450.0 mg/kg/injection, schedule: Q01DX Z (sc), vehicle: saline
  T/C: 103 % of control
dose: 450.0 mg/kg/injection, schedule: Q## X Z (ip), vehicle: saline
  T/C: 100 % of control
dose: 532.0 mg/kg/injection, schedule: Q01DX Z (oral), vehicle: saline
  T/C: 94 % of control
dose: 600.0 mg/kg/injection, schedule: Q03DX Z (ip), vehicle: saline
  T/C: 102 % of control and 112 % of control (2×)
dose: 622.0 mg/kg/injection, schedule: Q07DX Z (ip), vehicle: saline
  T/C: 115 % of control
dose: 675.0 mg/kg/injection, schedule: Q01DX Z (sc), vehicle: saline
  T/C: 116 % of control
dose: 675.0 mg/kg/injection, schedule: Q## X Z (ip), vehicle: saline
  T/C: 102 % of control
dose: 800.0 mg/kg/injection, schedule: Q01DX Z (ip), vehicle: carboxymethylcellulose (CMC)
  T/C: 102 % of control
dose: 800.0 mg/kg/injection, schedule: Q01DX Z (oral), vehicle: saline
  T/C: 101 % of control and 88 % of control
dose: 933.0 mg/kg/injection, schedule: Q07DX Z (ip), vehicle: saline
  T/C: 104 % of control
dose: 1200.0 mg/kg/injection, schedule: Q01DX Z (oral), vehicle: saline
  T/C: 102 % of control and 106 % of control
dose: 1400.0 mg/kg/injection, schedule: Q07DX Z (ip), vehicle: saline
  T/C: 113 % of control
dose: 1800.0 mg/kg/injection, schedule: Q01DX Z (oral), vehicle: saline
  T/C: 100 % of control

## COc1cccc(NC(=O)NC(C)(C)C)c1
dose: 50.0 mg/kg/injection, schedule: Q01DX009 (ip), vehicle: saline with Tween-80
  T/C: 95 % of control and 119 % of control
dose: 100.0 mg/kg/injection, schedule: Q01DX001 (ip), vehicle: saline with Tween-80
  T/C: 106 % of control
dose: 100.0 mg/kg/injection, schedule: Q04DX002 (ip), vehicle: saline with Tween-80
  T/C: 97 % of control and 103 % of control
dose: 100.0 mg/kg/injection, schedule: Q04DX003 (ip), vehicle: saline with Tween-80
  T/C: 105 % of control
dose: 200.0 mg/kg/injection, schedule: Q01DX001 (ip), vehicle: saline with Tween-80
  T/C: 100 % of control
dose: 200.0 mg/kg/injection, schedule: Q04DX002 (ip), vehicle: saline with Tween-80
  T/C: 94 % of control and 100 % of control
dose: 200.0 mg/kg/injection, schedule: Q04DX003 (ip), vehicle: saline with Tween-80
  T/C: 104 % of control
dose: 400.0 mg/kg/injection, schedule: Q01DX001 (ip), vehicle: saline with Tween-80
  T/C: 111 % of control
dose: 400.0 mg/kg/injection, schedule: Q01DX009 (ip), vehicle: saline with Tween-80
  T/C: 103 % of control and 108 % of control
dose: 400.0 mg/kg/injection, schedule: Q04DX002 (ip), vehicle: saline with Tween-80
  T/C: 97 % of control and 86 % of control
dose: 400.0 mg/kg/injection, schedule: Q04DX003 (ip), vehicle: saline with Tween-80
  T/C: 96 % of control

## Cc1ccc(CN(C)N=Nc2ccccc2)cc1
dose: 100.0 mg/kg/injection, schedule: Q04DX002 (ip), vehicle: Klucel (hydroxypropylcellulose) (HPC)
  T/C: 91 % of control
dose: 200.0 mg/kg/injection, schedule: Q04DX002 (ip), vehicle: Klucel (hydroxypropylcellulose) (HPC)
  T/C: 102 % of control

## Cn1c(=O)cc(CCl)c2ccccc21
dose: 100.0 mg/kg/injection, schedule: Q01DX001 (ip), vehicle: other
  T/C: 105 % of control

## CC(C(=O)c1cccs1)=C(C(F)(F)F)C(F)(F)F
dose: 100.0 mg/kg/injection, schedule: Q04DX003 (ip), vehicle: other
  T/C: 100 % of control
dose: 200.0 mg/kg/injection, schedule: Q04DX003 (ip), vehicle: other
  T/C: 94 % of control
dose: 400.0 mg/kg/injection, schedule: Q04DX003 (ip), vehicle: other
  T/C: 98 % of control

## CCCCNC(=O)NS(=O)(=O)c1ccc(C)cc1
dose: 100.0 mg/kg/injection, schedule: Q01DX001 (ip), vehicle: Klucel (hydroxypropylcellulose) (HPC)
  T/C: 96 % of control
dose: 200.0 mg/kg/injection, schedule: Q01DX001 (ip), vehicle: Klucel (hydroxypropylcellulose) (HPC)
  T/C: 96 % of control
dose: 400.0 mg/kg/injection, schedule: Q01DX001 (ip), vehicle: Klucel (hydroxypropylcellulose) (HPC)
  T/C: 89 % of control

## CCNCCNC
dose: 50.0 mg/kg/injection, schedule: Q01DX009 (ip), vehicle: saline
  T/C: 96 % of control
dose: 100.0 mg/kg/injection, schedule: Q01DX009 (ip), vehicle: saline
  T/C: 101 % of control
dose: 100.0 mg/kg/injection, schedule: Q04DX003 (ip), vehicle: saline
  T/C: 108 % of control
dose: 200.0 mg/kg/injection, schedule: Q04DX003 (ip), vehicle: saline
  T/C: 101 % of control

## COC1OC(COC(=O)c2ccc([N+](=O)[O-])cc2)C(N(C)C(C)=O)C1OC(=O)c1ccc([N+](=O)[O-])cc1 (centres undefined)
dose: 100.0 mg/kg/injection, schedule: Q01DX001 (ip), vehicle: carboxymethylcellulose (CMC)
  T/C: 93 % of control
dose: 200.0 mg/kg/injection, schedule: Q01DX001 (ip), vehicle: carboxymethylcellulose (CMC)
  T/C: 93 % of control
dose: 400.0 mg/kg/injection, schedule: Q01DX001 (ip), vehicle: carboxymethylcellulose (CMC)
  T/C: 93 % of control
